This passage reports IC50 results from US20210115044A1, “TRICYCLIC HETEROCYCLE COMPOUNDS USEFUL AS HIV INTEGRASE INHIBITORS” (Merck Sharp & Dohme Corp., priority 2018, published 2021).

The subject of this experiment is HIV-1 (H9/IIIB strain). Description: Multiple round HIV-1 infection assay in MT4-GFP cells (wild type cell assay, Viking). In kind it is cell-based. The note with it: MT4-GFP cells infected with HIV-1 H9/IIIB, inhibition of reproductive ratio R0, ~48 h and ~72 h post-infection. On the procedure: The antiviral activity of the Examples herein was assessed in an assay that measures the rate of replication of HIV in cell culture, and performed according to the following procedure. HIV-1 replication was monitored using MT4-gag-GFP clone D3 (hereafter designated MT4-GFP), which are MT-4 cells modified to harbor a GFP reporter gene, the expression of which is dependent on the HIV-1 expressed proteins tat and rev. Productive infection of an MT4-GFP cell with HIV-1 results in GFP expression approximately 24 h post-infection. MT4-GFP cells were maintained at 37° C./5% CO2/90% relative humidity in RPMI 1640 supplemented with 10% fetal bovine serum, 100 U/ml penicillin/streptomycin, and 400 μg/ml G418 to maintain the reporter gene. For infections, MT4-GFP cells were placed in the same medium lacking G418 and infected overnight with HIV-1 (H9/IIIB strain) virus at an approximate multiplicity of infection of 0.01 in the same incubation conditions. Cells were then washed and re-suspended in either RPMI 1640 at 2×10^5 cells/mL (0% NHS condition) or 100% normal human serum (NHS) at 2×10^5 cells/mL (100% NHS condition). Compound plates were prepared by dispensing compounds dissolved in DMSO into wells of 384 well poly-D-lysine-coated plates (0.2 μl/well) using an ECHO acoustic dispenser. Each compound was tested in a 10-point serial 3-fold dilution (typical final concentrations: 1050 nM-0.05 nM for 0% NHS condition or 42 μM-2.13 nM for 100% NHS condition). Controls included no inhibitor (DMSO only) and a combination of three antiviral agents (efavirenz, indinavir, an in-house integrase strand transfer inhibitor at final concentrations of 4 μM each). Cells were added ([…]) to compound plates and the infected cells were maintained at 37° C./5% CO2/90% relative humidity.
Infected cells were quantified at two time points, ˜48 h and ˜72 h post-infection, by counting the number of green cells in each well using an Acumen eX3 scanner. The increase in the number of green cells over ˜24 h period gives the reproductive ratio, R0, which is typically 5-15 and has been shown experimentally to be in logarithmic phase (data not shown). Inhibition of R0 is calculated for each well, and IC50s determined by non-linear 4-parameter curve fitting.

Setting [1] is: 0% NHS condition (RPMI 1640), read-out: WILD TYPE CELL ASSAY Viking IP (0% NHS).
Setting [2] is: 100% normal human serum condition, read-out: WILD TYPE CELL ASSAY Viking IP (100% NHS).
[3] abbreviates: Human immunodeficiency virus 1, IIIB, 0% NHS condition (RPMI 1640), read-out: WILD TYPE CELL ASSAY Viking IP (0% NHS).

SMILES strings stand for the structures. pIC50: −log10 of the molar value. Like-named read-outs stand apart in the source and are kept apart here.

In the case of `CC1N(C)C(=O)c2c(O)c(=O)c(C(=O)NCc3ccc(F)cc3F)c3n2C1(C)CC3O` (single isomer, unassigned) [Compound 65], the pIC50 is, setting by setting: under setting [1], 8.77; under setting [2], 6.97.

In the case of `CCC12CC(O)c3c(C(=O)NCc4c(F)cc(F)cc4F)c(=O)c(O)c(n31)C(=O)N(C)C2` (centres unmarked) [Compound 48], the pIC50 by setting is: under setting [1], 8.68; under setting [2], 6.58.

On to `CCC12CC(O)c3c(C(=O)NCc4c(F)ccc(F)c4F)c(=O)c(O)c(n31)C(=O)N(C)C2` (single isomer, unassigned) [Compound 50], for which the pIC50 is, setting by setting: under setting [1], 8.54; under setting [2], 7.59.

In the case of `CCC12CC(O)c3c(C(=O)NCc4c(F)ccc(Cl)c4F)c(=O)c(O)c(n31)C(=O)N(C)C2` (single isomer, unassigned) [Compound 54], the pIC50 under setting [1] was 8.55 and the pIC50 under setting [2] was 7.53.

With `CN1CC2(C)CC(O)c3c(C(=O)NCc4ccc(F)cc4)c(=O)c(O)c(n32)C1=O` (single isomer, unassigned) [Compound 21], the pIC50 reads like this: under setting [3], 8.43; under setting [2], 6.03.

For the molecule `CN1CC2(C)CC(O)c3c(C(=O)NCc4c(F)ccc(Cl)c4F)c(=O)c(O)c(n32)C1=O` (single isomer, unassigned) [Compound 30], the pIC50 under setting [1] was 8.68 and the pIC50 under setting [2] was 6.39.

As for `CC1C(O)c2c(C(=O)NCc3ccc(F)cc3F)c(=O)c(O)c3n2C1(C)CN(C)C3=O` (single isomer, unassigned) [Compound 79], the pIC50 reads like this: under setting [1], 8.35; under setting [2], 6.03.

As for `CCN1CC2(COC)CC(O)c3c(C(=O)NCc4ccc(F)cc4F)c(=O)c(O)c(n32)C1=O` (single isomer, unassigned) [Compound 58], the pIC50 reads like this: under setting [1], 8.64; under setting [2], 6.57.

As for `CCC12CC(O)c3c(C(=O)NCc4c(F)cc(F)cc4F)c(=O)c(O)c(n31)C(=O)N(C)C2` (centres unmarked) [Compound 47], the pIC50 reads like this: under setting [3], 8.64; under setting [2], 5.84.

Take `CN1CC2(C)CC(O)c3c(C(=O)NCc4ccc(F)cc4)c(=O)c(O)c(n32)C1=O` (centres unmarked) [Compound 24]: the pIC50 is 8.92 under setting [1] and 6.70 under setting [2].

Consider `CCN1CC2(COC)CC(O)c3c(C(=O)NCc4c(F)cc(F)cc4F)c(=O)c(O)c(n32)C1=O` (centres unmarked) [Compound 63], for which the pIC50 is, setting by setting: under setting [3], 8.54; under setting [2], 5.03.

Regarding `CN1CC2(C)CC(O)c3c(C(=O)NCc4c(F)cc(F)cc4F)c(=O)c(O)c(n32)C1=O` (single isomer, unassigned) [Compound 26], the pIC50 under setting [1] was 8.68 and the pIC50 under setting [2] is 6.97.

Turning to `CN1CC2(C)CC(O)c3c(C(=O)NCc4ccc(F)cc4)c(=O)c(O)c(n32)C1=O` (single isomer, unassigned) [Compound 22], the pIC50 reads like this: under setting [1], 8.52; under setting [2], 6.64.

Regarding `CCC12CC(O)c3c(C(=O)NCc4cccc(Cl)c4F)c(=O)c(O)c(n31)C(=O)N(C)C2` (single isomer, unassigned) [Compound 41], the pIC50 is, setting by setting: under setting [1], 8.66; under setting [2], 7.52.

With `CN1CC2(C)CC(O)c3c(C(=O)NCc4ccc(F)cc4)c(=O)c(O)c(n32)C1=O` (centres unmarked) [Compound 23], the pIC50 was 8.72 under setting [3] and 6.92 (Human immunodeficiency virus 1, IIIB, 100% normal human serum condition, read-out: WILD TYPE CELL ASSAY Viking IP (100% NHS)).

With `CC1N(C)C(=O)c2c(O)c(=O)c(C(=O)NCc3ccc(F)cc3F)c3n2C1(C)CC3O` (single isomer, unassigned) [Compound 67], the pIC50 is 8.64 under setting [1] and 7.08 under setting [2].

Regarding `CN1CC2(C)CC(O)c3c(C(=O)NCc4cccc(Cl)c4F)c(=O)c(O)c(n32)C1=O` (single isomer, unassigned) [Compound 34], the pIC50 under setting [1] is 8.68 and the pIC50 under setting [2] was 6.75.

As for `CCC12CC(O)c3c(C(=O)NCc4c(F)ccc(Cl)c4F)c(=O)c(O)c(n31)C(=O)N(C)C2` (centres unmarked) [Compound 55], the pIC50 runs as follows: under setting [3], 8.66; under setting [2], 7.03.

On to `CCC12CC(O)c3c(C(=O)NCc4c(F)ccc(F)c4F)c(=O)c(O)c(n31)C(=O)N(C)C2` (single isomer, unassigned) [Compound 49], for which the pIC50 runs as follows: under setting [3], 8.59; under setting [2], 5.99.
